Measurements taken from patent US20170050966A1, “INHIBITING THE TRANSIENT RECEPTOR POTENTIAL A1 ION CHANNEL” (HYDRA BIOSCIENCES, INC., priority 2014, published 2017).
In brackets after ≈: the same amount, converted by molar mass. Read-outs that look alike come from different tables or passages of the source.

What was measured:
[1] = Metabolic stability in liver microsomes; assay type: in vitro ADME, human; details: 1 μM test compound; for half-life at 1 μM: human, liver microsomes, 37° C.
Procedure: (§1) Metabolic stability of the compounds of Formula (I) was determined by standard liver microsome assays. Briefly, metabolic stability was tested by adding the compound to be tested dissolved in DMSO to human, dog, or rat liver microsomes. Assays were run with a starting concentration of 1 μM test compound. The reaction was initiated by addition of nicotinamide adenine dinucleotide phosphate[…] (NADPH) regeneration components at 37° C., at which time an aliquot was immediately quenched in an ice-cold acetonitrile/methanol/water solution. Reaction mixture was incubated at 37° C. on a shaker, and additional aliquots were taken at 7, 15, 30 and 60 minutes. Following quench and centrifugation, samples were analyzed on HPLC/MS/MS.

[2] = Oral bioavailability of solutions in non-fasted rats; details: rat, in vivo, oral solution, read-out: Rat % F
Procedure: Early bioavailability studies in rat were conducted with solutions of the compounds of the invention. Compounds were delivered via oral administration as a solution in an appropriate excipient. Example formulations include, but are not limited to: 4% DMSO, 10% Solutol HS-15, and 86% water or 4% DMSO, 5% Tween, 25% Cremophor EL. Target concentrations were typically 1 mg/mL, and administered via oral gavage to non-fasted rats. The absolute bioavailability is the dose-corrected area under the curve (AUC) non-intravenous divided by the dose corrected AUC intravenous. The formula for calculating F for a drug administered by the oral route (PO) is given below:
% F=AUC PO×Dose IV/AUC IV×Dose PO

[3] = Solubility in Normal Ringer Solution; assay type: physicochemical; details: aqueous buffer, kinetic from dmso stock, pH 7.4, room temperature
Procedure: Compounds of the invention were also tested for solubility in Normal Ringer Solution. […] Following vortex and incubation for 40 minutes at room temperature, solutions were filtered, quenched with acetonitrile, and analyzed by liquid chromatography. Solubility limits were determined by comparison to a standard curve. […] Solubility is reported as “greater than” if the observed increase between the last 2 dilutions tested is greater than 2-fold.

human TRPA1 (hTRPA1) = molecular target: T1, human TRPA1 (hTRPA1) (Homo sapiens, UniProt O75762); test: Inhibition of human TRPA1, whole-cell patch clamp; assay type: cell-based
T1 construct: expressed in transfected cells
T1 sequence (O75762 whole entry): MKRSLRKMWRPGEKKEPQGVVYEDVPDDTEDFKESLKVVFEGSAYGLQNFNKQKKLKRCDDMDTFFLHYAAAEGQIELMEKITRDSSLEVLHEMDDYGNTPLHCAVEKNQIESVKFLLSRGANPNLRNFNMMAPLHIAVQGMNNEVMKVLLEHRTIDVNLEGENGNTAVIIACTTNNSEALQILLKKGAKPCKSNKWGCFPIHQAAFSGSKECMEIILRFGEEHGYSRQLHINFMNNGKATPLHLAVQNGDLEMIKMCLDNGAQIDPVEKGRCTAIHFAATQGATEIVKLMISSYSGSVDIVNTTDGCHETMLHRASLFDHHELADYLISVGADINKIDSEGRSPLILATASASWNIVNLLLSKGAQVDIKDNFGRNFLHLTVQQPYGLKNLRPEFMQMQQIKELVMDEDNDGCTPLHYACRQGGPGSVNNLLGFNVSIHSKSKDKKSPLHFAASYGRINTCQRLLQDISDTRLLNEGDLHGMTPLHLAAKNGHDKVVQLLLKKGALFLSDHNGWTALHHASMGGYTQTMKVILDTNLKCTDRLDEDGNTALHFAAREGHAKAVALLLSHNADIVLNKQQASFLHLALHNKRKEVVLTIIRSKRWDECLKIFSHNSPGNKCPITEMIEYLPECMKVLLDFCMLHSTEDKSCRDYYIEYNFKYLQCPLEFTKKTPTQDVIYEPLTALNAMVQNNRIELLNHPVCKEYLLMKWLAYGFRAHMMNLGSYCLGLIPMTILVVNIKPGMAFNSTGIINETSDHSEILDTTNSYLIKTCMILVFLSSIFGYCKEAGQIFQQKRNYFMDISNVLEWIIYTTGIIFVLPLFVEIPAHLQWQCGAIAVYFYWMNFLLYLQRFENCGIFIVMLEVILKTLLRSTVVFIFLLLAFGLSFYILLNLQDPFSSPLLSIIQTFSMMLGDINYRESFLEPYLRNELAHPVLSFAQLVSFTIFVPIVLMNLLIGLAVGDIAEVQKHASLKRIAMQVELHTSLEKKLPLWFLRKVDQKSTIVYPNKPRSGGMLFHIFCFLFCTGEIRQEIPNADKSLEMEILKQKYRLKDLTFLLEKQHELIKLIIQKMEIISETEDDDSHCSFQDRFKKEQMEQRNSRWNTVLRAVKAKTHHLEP
Procedure: Data for TRPA1 inhibition was obtained by this method for the indicated compounds of Formula (I), with the relevant data included in Table 14 below. All currents were recorded in whole-cell configuration using EPC-9 and EPC-10 amplifiers and Patchmaster software (HEKA). […] The standard pipette solution consisted of 140 mM CsAsp, 10 mM EGTA, 10 mM HEPES, […], 1.91 mM CaCl2, and up to 0.3 mM Na2GTP, with pH adjusted to 7.2 with CsOH. In addition, a solution containing 145 mM CsCl, 10 mM HEPES, 10 mM EGTA, and up to 0.3 mM Na2GTP and 1 mM MgCl2 (pH 7.2 adjusted with CsOH) can be used. The standard bath solution contained 150 mM NaCl, 10 mM HEPES, 10 mM glucose, 4.5 mM KCl, 1 mM EGTA, 3 mM MgCl2, with pH adjusted to 7.4 with NaOH. In some instances, 2 mM CaCl2 was added in place of EGTA and the concentration of MgCl2 was reduced to 1 mM.
Data were collected either by continuous recordings at −60 mV or by applying voltage ramps from a holding potential of 0 mV every 4 s. Continuous recordings were collected at 400 Hz and digitally filtered off-line at 10 Hz for presentation. Voltage ramps were applied from −100 mV to 100 mV over the course of 400 ms, and data were collected at 10 kHz and filtered at […]. Inward and outward currents were analyzed from the ramps at −80 and 80 mV, respectively. Liquid junction potential correction was not used.
Solutions were switched using a gravity-fed continuous focal perfusion system. To achieve rapid temperature changes, two temperature control, and perfusion systems were employed simultaneously. For temperatures greater than or equal to 22° C., a Warner Instruments bipolar temperature controller (TC-344B) and inline heater (SHM-8) were used. […] Temperatures were confirmed using a thermistor (Warner Instruments, TA-29), with temperatures at the recorded cell estimated to be within +/−2° C. of those reported.
The antagonist effects of compounds of Formula (I) against human TRPA1 (“hTRPA1”) in a whole cell patch configuration were evaluated using the in vitro assay protocol described above.

[4] = Metabolic stability in liver microsomes; assay type: in vitro ADME
Procedure: as §1

[5] = antagonist effect, whole cell patch configuration, read-out: hTRPA1
[6] = dog liver microsomes, female, read-out: Female Half-Life
[7] = rat liver microsomes, both sexes, read-out: Half-Life Both sexes
[8] = rat liver microsomes, male, read-out: Male Half-Life

| Human Liver Microsomes Hepatic Clearance [1] [mL/min/kg] | half-life at 1 μM [1] [min] | bioavailability [2] [%] | solubility at 40 min [3] [µM] | IC50 (human TRPA1 (hTRPA1); [5]) [nM] | Female Hepatic Clearance ([4]; dog liver microsomes, female) [mL/min/kg] | half-life at 1 μM [4, 6] [min] | Male Hepatic Clearance ([4]; dog liver microsomes, male) [mL/min/kg] | half-life at 1 μM ([4]; dog liver microsomes, male, read-out: Male Half-Life) [min] | half-life at 1 μM [4, 7] [min] | Female Hepatic Clearance ([4]; rat liver microsomes, female) [mL/min/kg] | half-life at 1 μM ([4]; rat liver microsomes, female, read-out: Female Half-Life) [min] | Male Hepatic Clearance ([4]; rat liver microsomes, male) [mL/min/kg] | half-life at 1 μM [4, 8] [min] | IC50 (human TRPA1 (hTRPA1); hTRPA1, 10 μM AITC, read-out: IC50 Inward current) [nM] | half-life at 1 μM ([4]; dog liver microsomes, both sexes, read-out: Half-Life both sexes) [min] | Structure (SMILES) |
| --- | --- | --- | --- | --- | --- | --- | --- | --- | --- | --- | --- | --- | --- | --- | --- | --- |
| 16 | 9 | 46 | > 14.3 | 5.15 | 18 | 18 | 22 | 10 | 39.2 | 20 | 46 | 29 | 22 | – | – | C[C@@H](C(=O)Nc1ccnc(-c2cnc(N3CCCC3(C)C)nc2)n1)n1cnc2c1c(=O)n(C)c(=O)n2C [Compound 1, (S)-2-(1,3-dimethyl-2,6-dioxo-2,3-dihydro-1H-purin-7(6H)-yl)-N-(2′-(2,2-dimethylpyrrolidin-1-yl)-[2,5′-bipyrimidin]-4-yl)propanamide] |
| 8 | 43 | 100 | ~32.4 (≈ 17.6 µg/mL) | 6.87 | – | 22.9 | – | – | > 60 | – | – | 2 | 787 | 6.9 ± 3.1 | 22.9 | C[C@@H](C(=O)Nc1ccnc(-c2cnc(N3CCC[C@H]3C(F)(F)F)nc2)n1)n1cnc2c1c(=O)n(C)c(=O)n2C [Compound 2, (S)-2-(1,3-dimethyl-2,6-dioxo-2,3-dihydro-1H-purin-7(6H)-yl)-N-(2′-((S)-2-(trifluoromethyl)pyrrolidin-1-yl)-[2,5′-bipyrimidin]-4-yl)propanamide] |
| – | 19.8 | 100 | > 31.3 | 11.3 | – | – | – | – | 72.6 | – | – | – | – | – | – | C[C@@H](C(=O)Nc1ccnc(-c2cnc(N3CCC[C@@H]3C(F)(F)F)nc2)n1)n1cnc2c1c(=O)n(C)c(=O)n2C [Compound 4, (S)-2-(1,3-dimethyl-2,6-dioxo-2,3-dihydro-1H-purin-7(6H)-yl)-N-(2′-((R)-2-(trifluoromethyl)pyrrolidin-1-yl)-[2,5′-bipyrimidin]-4-yl)propanamide] |
